What all share (experiment): Capture of cells by sulfated octasaccharide-coated magnetic beads on microfluidic chip
Common to all, as to type: cell-based

Experiment [1] has as its system Huh-28. Conditions: for specificity of capture among the eight cell lines: Huh28, a cholangiocarcinoma (CCA) cell line, versus the other cell lines; for capture rate: Huh-28 cells. On the procedure: (§1) Preparation of magnetic beads pre-coated with a sulfated octasaccharide. The surface of magnetic beads was respectively coated with the sulfated octasaccharides of the present invention (e.g., HS1, HS12 and etc) with three different concentrations (1 μM, 10 μM and 100 μM). Briefly, sulfated octasaccharides were first incubated with Dynabeads® MyOne™ Streptavidin T1 (˜7-10×10^9 beads/mL, Ø=1 μm, Invitrogen Co., USA) in a volume ratio of 1:10 for 30 min. Then beads were collected by using a magnet for 5 min, followed by discarding the supernatant and washing thrice by using 1-mL deionized (DI) water. Finally, the coated beads were suspended in the equal volume of DI water as the initial volume of Dynabeads® taken from the vial.
(§2) The microfluidic chip constructed above was employed to capture cancerous cells. Briefly, 2×10^5 cells from various types of cancerous cell lines were suspended in 100 μL×phosphate buffered saline (PBS) buffer and loaded into six capture chambers, respectively. 10 μL of different concentrations of sulfated octasaccharides coated beads were manually pipetted in the capture chambers, and gently mixed with cells by the micropumps for 15 min. After incubation, the cells were identified and bound by the magnetic beads pre-coated with the sulfated octasaccharides of formula (I) of the present invention. Then, these captured cells were collected with a magnetic force and washed by 1×PBS buffer. After isolating, the beads and captured cells were suspended in 100 μL 1×PBS buffer, and finally loaded into a hemocytometer to calculate the capture rates.
(§3) In a pre-test, total of 8 cancer cell lines (i.e., MMNK-1, SNU-478, HuCCT-1, Huh-28, KKU-100, HepG2, BxPC3, and HCT8) were respectively loaded into the microsystem and incubated with the magnetic beads, then the captured cells were collected with a magnetic force, and finally loaded into a hemocytometer to calculate the capture rates.
FIG. 2 illustrates that the cancer cells, Huh-28, could be successfully captured by magnetic beads pre-coated with HS 1 of 100 μM. Huh-28 cells before being captured by magnetic beads are depicted in FIG. 2, panel a. After well mixing Huh-28 cells and beads for 30 mins, cells were surrounded by beads (FIG. 2, panel b). The supernatant collection through an isolation process by magnetic force after 30-min incubation is depicted in FIG. 2, panel c.

In another experiment the test system is SNU-478. Particulars: SNU-478 cells. On the procedure: as §1, §2, §3
A further experiment relates to HCT8. The protocol: as §1, §2, §3
A further experiment concerns HuCCT-1. Particulars: for capture rate: HuCCT-1 cells; for capture rate, in words: metastasized CCA cells (HuCCT-1). The protocol:
as §1, §2, §3

The subject of a further experiment is KKU-100. Particulars: KKU-100 cells. The protocol:
as §1, §2, §3

The test system of a further experiment is MMNK-1. Conditions: for capture rate: MMNK-1 cells; for capture rate, in words: normal cells (MINK-1). On the procedure: as §1, §2, §3
The test system of another experiment is BxPC3. On the procedure: as §1, §2, §3
The test system of the next experiment is HepG2. The protocol:
as §1, §2, §3

Experiment [2] deals with Huh-28. Conditions: Huh-28 cells; EpCAM-coated beads.

`CC(=O)NC1C(O)[C@H](O)C(CO)O[C@@H]1O[C@@H]1C(C(=O)[O-])O[C@@H](O[C@@H]2C(CO)O[C@H](O[C@@H]3C(C(=O)[O-])O[C@@H](O[C@@H]4C(CO)O[C@H](O[C@@H]5C(C(=O)[O-])O[C@@H](O[C@@H]6C(CO)O[C@H](O[C@@H]7C(C(=O)[O-])O[C@@H](OCCCCCN)C(O)C7O)C(NC(C)=O)C6O)C(O)C5O)C(NC(C)=O)C4O)C(O)C3O)C(NC(C)=O)C2O)C(O)C1O.[Na+].[Na+].[Na+].[Na+]` (stereo partly drawn) [HS 1, 5-Aminopentyl (2-acetamido-2-deoxy-α-D-glucopyranosyl)-(1→4)-α-L-idopyranosiduronyl-(1→4)-(2-acetamido-2-deoxy-α-D-glucopyranosyl)-(1→4)-α-L-idopyranosiduronyl-(1→4)-(2-acetamido-2-deoxy-α-D-glucopyranosyl)-(1→4)-α-L-idopyranosiduronyl-(1→4)-(2-acetamido-2-deoxy-α-D-glucopyranosyl)-(1→4)-α-L-idopyranosiduronate]: the “specificity of capture among the eight cell lines” value with Huh-28 [1] is on record as “highly specific to Huh28”. Moreover, the capture rate is 65 ± 20% in the experiment on Huh-28 [1] (beads coated with HS at 1 μM); 70 ± 10% in the experiment with Huh-28 [1] (beads coated with HS at 10 μM); 78 ± 14% in the experiment with Huh-28 [1] (beads coated with HS at 100 μM); 78±14% in the experiment on Huh-28 [1] (beads coated with HS at 100 μM, listed as HS1); 23 ± 13% in the experiment on SNU-478 (beads coated with HS at 1 μM); 20 ± 8% in the experiment with SNU-478 (beads coated with HS at 10 μM). The capture rate in the experiment with SNU-478 (beads coated with HS at 100 μM) is recorded as 22 ± 7%; in the experiment with HCT8 (beads coated with HS at 1 μM), 18 ± 5%; in the experiment with HCT8 (beads coated with HS at 10 μM) it was 14 ± 4%; in the experiment on HCT8 (beads coated with HS at 100 μM), 13 ± 3%; with HuCCT-1 (beads coated with HS at 1 μM) it was 4 ± 1%; in the experiment with HuCCT-1 (beads coated with HS at 10 μM), 6 ± 2%. Also, the capture rate in the experiment with HuCCT-1 (beads coated with HS at 100 μM) stood at 4 ± 1%; with KKU-100 (beads coated with HS at 1 μM) it was 40 ± 10%; with KKU-100 (beads coated with HS at 10 μM), 46 ± 1%; with KKU-100 (beads coated with HS at 100 μM), 51 ± 2%; with MMNK-1 (beads coated with HS at 1 μM), 58 ± 11%; in the experiment on MMNK-1 (beads coated with HS at 10 μM), 52 ± 6%. Moreover, the capture rate was determined as 34 ± 5% in the experiment on MMNK-1 (beads coated with HS at 100 μM); 15 ± 5% with BxPC3 (beads coated with HS at 1 μM); 18 ± 4% with BxPC3 (beads coated with HS at 10 μM); 13 ± 7% in the experiment on BxPC3 (beads coated with HS at 100 μM); 12 ± 0% in the experiment with HepG2 (beads coated with HS at 1 μM); 16 ± 6% with HepG2 (beads coated with HS at 10 μM). The capture rate with HepG2 (beads coated with HS at 100 μM) stood at 10 ± 4%. Further, the “capture of Huh-28 cells seen in photographs (FIG. 2)” value in the experiment with Huh-28 [1] (beads coated at 100 μM, 30-min incubation, few cells left in supernatant) was “Almost all of the Huh-28 cells were captured and isolated”. Besides, the “capture rate, in words” value with HuCCT-1 and with MMNK-1 was “relatively low” in each case.
Take `NCCCCCO[C@@H]1O[C@H](C(=O)O)[C@@H](O[C@H]2O[C@H](COS(=O)(=O)O)[C@@H](O[C@@H]3O[C@@H](C(=O)O)[C@@H](O[C@H]4O[C@H](COS(=O)(=O)O)[C@@H](O[C@@H]5O[C@H](C(=O)O)[C@@H](O[C@H]6O[C@H](COS(=O)(=O)O)[C@@H](O[C@@H]7O[C@@H](C(=O)O)[C@@H](O[C@H]8O[C@H](COS(=O)(=O)O)[C@@H](O)[C@H](O)[C@H]8NS(=O)(=O)O)[C@H](O)[C@H]7OS(=O)(=O)O)[C@H](O)[C@H]6NS(=O)(=O)O)[C@H](O)[C@H]5OS(=O)(=O)O)[C@H](O)[C@H]4NS(=O)(=O)O)[C@H](O)[C@H]3OS(=O)(=O)O)[C@H](O)[C@H]2NS(=O)(=O)O)[C@H](O)[C@H]1OS(=O)(=O)O` [HS 12]: the “specificity of capture among the eight cell lines” value in the experiment on Huh-28 [1] is recorded as “highly specific to Huh28”. The capture rate in the experiment on Huh-28 [1] (beads coated with HS at 1 μM) is reported as 66 ± 6%; with Huh-28 [1] (beads coated with HS at 10 μM) it was 67 ± 3%; in the experiment on Huh-28 [1] (beads coated with HS at 100 μM) it was 73±4%; in the experiment with SNU-478 (beads coated with HS at 1 μM) it was 20 ± 5%; in the experiment on SNU-478 (beads coated with HS at 10 μM) it was 17 ± 7%; with SNU-478 (beads coated with HS at 100 μM), 16 ± 8%. Further, the capture rate was found to be 16 ± 3% with HCT8 (beads coated with HS at 1 μM); 13 ± 0% in the experiment on HCT8 (beads coated with HS at 10 μM); 9 ± 2% with HCT8 (beads coated with HS at 100 μM); 5 ± 1% in the experiment on HuCCT-1 (beads coated with HS at 1 μM); 5 ± 2% with HuCCT-1 (beads coated with HS at 10 μM); 4 ± 2% in the experiment with HuCCT-1 (beads coated with HS at 100 μM). Moreover, the capture rate is 42 ± 3% in the experiment on KKU-100 (beads coated with HS at 1 μM); 44 ± 2% with KKU-100 (beads coated with HS at 10 μM); 41 ± 11% in the experiment on KKU-100 (beads coated with HS at 100 μM); 55 ± 7% in the experiment on MMNK-1 (beads coated with HS at 1 μM); 47 ± 20% in the experiment with MMNK-1 (beads coated with HS at 10 μM); 16 ± 8% with MMNK-1 (beads coated with HS at 100 μM). For the same molecule, the capture rate in the experiment with BxPC3 (beads coated with HS at 1 μM) is 16 ± 6%; with BxPC3 (beads coated with HS at 10 μM), 11 ± 3%; in the experiment with BxPC3 (beads coated with HS at 100 μM), 7 ± 3%; with HepG2 (beads coated with HS at 1 μM) it was 14 ± 1%; in the experiment with HepG2 (beads coated with HS at 10 μM), 11 ± 4%; in the experiment with HepG2 (beads coated with HS at 100 μM) it was 9 ± 6%. Also, the “capture rate, in words” value in the experiment with HuCCT-1 and in the experiment with MMNK-1 was “relatively low” in each case.

B1: EpCAM: epithelial cell adhesion molecule (EpCAM)-coated beads, comparison capture reagent (protein, UniProt P16422 24-314, looked up)
Epithelial cell adhesion …: QEECVCENYKLAVNCFVNNNRQCQCTSVGAQNTVICSKLAAKCLVMKAEMNGSKLGRRAKPEGALQNNDGLYDPDCDESGLFKAKQCNGTSMCWCVNTAGVRRTDKDTEITCSERVRTYWIIIELKHKAREKPYDSKSLRTALQKEITTRYQLDPKFITSILYENNVITIDLVQNSSQKTQNDVDIADVAYYFEKDVKGESLFHSKKMDLTVNGEQLDLDPGQTLIYYVDEKAPEFSMQGLKAGVIAVIVVVVIAVVAGIVVLVISRKKRMAKYEKAEIKEMGEMHRELNA
modifications: coated on beads
notes: epithelial cell adhesion molecule (EpCAM)-coated beads, comparison capture reagent
With B1, the capture rate came to 58±19% with Huh-28 [2]; 74 ± 6% with SNU-478 (EpCAM-coated beads); 22 ± 3% in the experiment with HCT8 (EpCAM-coated beads); 67 ± 11% in the experiment on HuCCT-1 (EpCAM-coated beads); 51 ± 5% in the experiment on KKU-100 (EpCAM-coated beads); 58 ± 8% in the experiment with MMNK-1 (EpCAM-coated beads). The results for the capture rate in the experiment on BxPC3 (EpCAM-coated beads) and in the experiment on HepG2 (EpCAM-coated beads) were 45 ± 6% and 44 ± 7%, respectively.

(Values after US12053777B2, “Devices and methods for detecting cancerous cells” (Academia Sinica, priority 2019, dated 2024).)
